{"source": "PubChem BioAssay AID1259407", "about": "(Chemical Carcinogenesis Research Information System (CCRIS), 2018)", "test_system": "CCRIS mutagenicity, Ames/micronucleus/aberration tests", "assay": "CCRIS mutagenicity studies", "key": {"[1]": {"conditions": "Test System: AMES SALMONELLA TYPHIMURIUM, Strain/Indicator: TA98, Metabolic Activation: NONE, Method: STANDARD PLATE"}, "[2]": {"conditions": "Test System: AMES SALMONELLA TYPHIMURIUM, Strain/Indicator: TA100, Metabolic Activation: NONE, Method: STANDARD PLATE"}}, "note": "Calls of active or inactive are those of the source. The rule behind the calls is not given here."}
{"smiles": "Nc1ccc2c(c1)C(=O)c1ccccc1C2=O", "values": [{"measurement": "mutagenic call", "setting": "End Point: IN VITRO CHROMOSOMAL ABERRATIONS, Test System: CHL CELLS, Metabolic Activation: RAT, LIVER, S-9, SODIUM PHENOBARBITAL AND 5,6-BENZOFLAVONE", "value": "inactive; negative"}, {"measurement": "mutagenic call", "setting": "Test System: AMES SALMONELLA TYPHIMURIUM, Strain/Indicator: TA98, Metabolic Activation: HAMSTER, LIVER, S-9, AROCLOR 1254, Method: STANDARD PLATE", "value": "active; positive"}, {"measurement": "mutagenic call", "setting": "Test System: AMES SALMONELLA TYPHIMURIUM, Strain/Indicator: TA98, Metabolic Activation: HAMSTER, LIVER, S-9, Method: STANDARD PLATE", "value": "active; positive"}, {"measurement": "mutagenic call", "setting": "Test System: AMES SALMONELLA TYPHIMURIUM, Strain/Indicator: TA98, Metabolic Activation: MOUSE, LIVER, S-9, AROCLOR 1254, Method: STANDARD PLATE", "value": "active; positive"}, {"measurement": "mutagenic call", "setting": "Test System: AMES SALMONELLA TYPHIMURIUM, Strain/Indicator: TA98, Metabolic Activation: MOUSE, LIVER, S-9, Method: STANDARD PLATE", "value": "active; positive"}, {"measurement": "mutagenic call", "setting": "[1]", "value": "inactive; negative"}, {"measurement": "mutagenic call", "setting": "Test System: AMES SALMONELLA TYPHIMURIUM, Strain/Indicator: TA98, Metabolic Activation: RAT, LIVER, S-9, AROCLOR 1254, Method: STANDARD PLATE", "value": "active; positive"}, {"measurement": "mutagenic call", "setting": "Test System: AMES SALMONELLA TYPHIMURIUM, Strain/Indicator: TA98, Metabolic Activation: RAT, LIVER, S-9, Method: STANDARD PLATE", "value": "active; positive"}, {"measurement": "mutagenic call", "setting": "Test System: AMES SALMONELLA TYPHIMURIUM, Strain/Indicator: TA100, Metabolic Activation: HAMSTER, LIVER, S-9, AROCLOR 1254, Method: STANDARD PLATE", "value": "active; positive"}, {"measurement": "mutagenic call", "setting": "Test System: AMES SALMONELLA TYPHIMURIUM, Strain/Indicator: TA100, Metabolic Activation: HAMSTER, LIVER, S-9, Method: STANDARD PLATE", "value": "active; positive"}, {"measurement": "mutagenic call", "setting": "Test System: AMES SALMONELLA TYPHIMURIUM, Strain/Indicator: TA100, Metabolic Activation: MOUSE, LIVER, S-9, AROCLOR 1254, Method: STANDARD PLATE", "value": "active; positive"}, {"measurement": "mutagenic call", "setting": "[2]", "value": "inactive; negative"}, {"measurement": "mutagenic call", "setting": "Test System: AMES SALMONELLA TYPHIMURIUM, Strain/Indicator: TA100, Metabolic Activation: RAT, LIVER, S-9, AROCLOR 1254, Method: STANDARD PLATE", "value": "active; positive"}, {"measurement": "mutagenic call", "setting": "Test System: AMES SALMONELLA TYPHIMURIUM, Strain/Indicator: TA1535, Metabolic Activation: HAMSTER, LIVER, S-9, Method: STANDARD PLATE", "value": "inactive; negative"}, {"measurement": "mutagenic call", "setting": "Test System: AMES SALMONELLA TYPHIMURIUM, Strain/Indicator: TA1535, Metabolic Activation: MOUSE, LIVER, S-9, AROCLOR 1254, Method: STANDARD PLATE", "value": "inactive; negative"}, {"measurement": "mutagenic call", "setting": "Test System: AMES SALMONELLA TYPHIMURIUM, Strain/Indicator: TA1535, Metabolic Activation: MOUSE, LIVER, S-9, Method: STANDARD PLATE", "value": "inactive; negative"}, {"measurement": "mutagenic call", "setting": "Test System: AMES SALMONELLA TYPHIMURIUM, Strain/Indicator: TA1535, Metabolic Activation: NONE, Method: STANDARD PLATE", "value": "inactive; negative"}, {"measurement": "mutagenic call", "setting": "Test System: AMES SALMONELLA TYPHIMURIUM, Strain/Indicator: TA1537, Metabolic Activation: HAMSTER, LIVER, S-9, AROCLOR 1254, Method: STANDARD PLATE", "value": "active; positive"}, {"measurement": "mutagenic call", "setting": "Test System: AMES SALMONELLA TYPHIMURIUM, Strain/Indicator: TA1537, Metabolic Activation: HAMSTER, LIVER, S-9, Method: STANDARD PLATE", "value": "active; positive"}, {"measurement": "mutagenic call", "setting": "Test System: AMES SALMONELLA TYPHIMURIUM, Strain/Indicator: TA1537, Metabolic Activation: MOUSE, LIVER, S-9, AROCLOR 1254, Method: STANDARD PLATE", "value": "active; positive"}, {"measurement": "mutagenic call", "setting": "Test System: AMES SALMONELLA TYPHIMURIUM, Strain/Indicator: TA1537, Metabolic Activation: MOUSE, LIVER, S-9, Method: STANDARD PLATE", "value": "active; positive"}, {"measurement": "mutagenic call", "setting": "Test System: AMES SALMONELLA TYPHIMURIUM, Strain/Indicator: TA1537, Metabolic Activation: RAT, LIVER, S-9, AROCLOR 1254, Method: STANDARD PLATE", "value": "active; positive"}, {"measurement": "mutagenic call", "setting": "Test System: AMES SALMONELLA TYPHIMURIUM, Strain/Indicator: TA1537, Metabolic Activation: RAT, LIVER, S-9, Method: STANDARD PLATE", "value": "active; positive"}, {"measurement": "mutagenic call", "setting": "Test System: AMES SALMONELLA TYPHIMURIUM, Strain/Indicator: TA1538, Metabolic Activation: HAMSTER, LIVER, S-9, AROCLOR 1254, Method: STANDARD PLATE", "value": "active; positive"}, {"measurement": "mutagenic call", "setting": "Test System: AMES SALMONELLA TYPHIMURIUM, Strain/Indicator: TA1538, Metabolic Activation: HAMSTER, LIVER, S-9, Method: STANDARD PLATE", "value": "active; positive"}, {"measurement": "mutagenic call", "setting": "Test System: AMES SALMONELLA TYPHIMURIUM, Strain/Indicator: TA1538, Metabolic Activation: MOUSE, LIVER, S-9, AROCLOR 1254, Method: STANDARD PLATE", "value": "active; positive"}, {"measurement": "mutagenic call", "setting": "Test System: AMES SALMONELLA TYPHIMURIUM, Strain/Indicator: TA1538, Metabolic Activation: MOUSE, LIVER, S-9, Method: STANDARD PLATE", "value": "active; positive"}, {"measurement": "mutagenic call", "setting": "Test System: AMES SALMONELLA TYPHIMURIUM, Strain/Indicator: TA1538, Metabolic Activation: NONE, Method: STANDARD PLATE", "value": "inactive; negative"}, {"measurement": "mutagenic call", "setting": "Test System: AMES SALMONELLA TYPHIMURIUM, Strain/Indicator: TA1538, Metabolic Activation: RAT, LIVER, S-9, AROCLOR 1254, Method: STANDARD PLATE", "value": "active; positive"}, {"measurement": "mutagenic call", "setting": "Test System: AMES SALMONELLA TYPHIMURIUM, Strain/Indicator: TA1538, Metabolic Activation: RAT, LIVER, S-9, Method: STANDARD PLATE", "value": "active; positive"}, {"measurement": "mutagenic call", "setting": "Test System: E. COLI, Strain/Indicator: WP2 UVRA, Metabolic Activation: HAMSTER, LIVER, S-9, Method: STANDARD PLATE", "value": "inactive; negative"}, {"measurement": "mutagenic call", "setting": "Test System: E. COLI, Strain/Indicator: WP2 UVRA, Metabolic Activation: MOUSE, LIVER, S-9, Method: STANDARD PLATE", "value": "inactive; negative"}, {"measurement": "mutagenic call", "setting": "Test System: E. COLI, Strain/Indicator: WP2 UVRA, Metabolic Activation: NONE, Method: STANDARD PLATE", "value": "inactive; negative"}, {"measurement": "mutagenic call", "setting": "Test System: E. COLI, Strain/Indicator: WP2 UVRA, Metabolic Activation: RAT, LIVER, S-9, Method: STANDARD PLATE", "value": "inactive; negative"}, {"measurement": "mutagenic call", "setting": "Test System: MOUSE LYMPHOMA, Strain/Indicator: L5178Y (TK+/TK-), Metabolic Activation: NONE, Method: SUSPENSION/PLATE", "value": "active; positive"}]}
{"smiles": "CC(=O)N(O)c1ccc(O)cc1", "values": [{"measurement": "mutagenic call", "setting": "End Point: IN VITRO MICRONUCLEUS, Test System: RAT KIDNEY FIBROBLAST NRK-49F, Metabolic Activation: NONE", "value": "active; positive"}]}
{"smiles": "Cn1c2ccccc2c2ccccc21", "values": [{"measurement": "mutagenic call", "setting": "[1]", "value": "inactive; negative"}, {"measurement": "mutagenic call", "setting": "Test System: AMES SALMONELLA TYPHIMURIUM, Strain/Indicator: TA98, Metabolic Activation: RAT LIVER S-9, AROCLOR 1254, Method: STANDARD PLATE", "value": "inactive; negative"}, {"measurement": "mutagenic call", "setting": "[2]", "value": "inactive; negative"}, {"measurement": "mutagenic call", "setting": "Test System: AMES SALMONELLA TYPHIMURIUM, Strain/Indicator: TA100, Metabolic Activation: RAT LIVER S-9, AROCLOR 1254, Method: STANDARD PLATE", "value": "active; positive"}, {"measurement": "mutagenic call", "setting": "Test System: UDS PRIMARY RAT HEPATOCYTES, Strain/Indicator: THY-INCORP, Metabolic Activation: NONE, Method: AUTORADIOGRAPHY", "value": "inactive; negative"}]}
{"smiles": "CNc1ncn(C)c1C(=O)N(C)N=O", "values": [{"measurement": "mutagenic call", "setting": "[1]", "value": "inactive; negative"}, {"measurement": "mutagenic call", "setting": "Test System: AMES SALMONELLA TYPHIMURIUM, Strain/Indicator: TA98, Metabolic Activation: S-9, Method: STANDARD PLATE", "value": "inactive; negative"}, {"measurement": "mutagenic call", "setting": "[2]", "value": "inactive; negative"}, {"measurement": "mutagenic call", "setting": "Test System: AMES SALMONELLA TYPHIMURIUM, Strain/Indicator: TA100, Metabolic Activation: S-9, Method: STANDARD PLATE", "value": "active; positive"}, {"measurement": "mutagenic call", "setting": "Test System: AMES SALMONELLA TYPHIMURIUM, Strain/Indicator: TA102, Metabolic Activation: NONE, Method: STANDARD PLATE", "value": "active; positive"}, {"measurement": "mutagenic call", "setting": "Test System: AMES SALMONELLA TYPHIMURIUM, Strain/Indicator: TA102, Metabolic Activation: S-9, Method: STANDARD PLATE", "value": "active; positive"}, {"measurement": "mutagenic call", "setting": "Test System: AMES SALMONELLA TYPHIMURIUM, Strain/Indicator: TA1535, Metabolic Activation: S-9, Method: STANDARD PLATE", "value": "active; positive"}, {"measurement": "mutagenic call", "setting": "Test System: AMES SALMONELLA TYPHIMURIUM, Strain/Indicator: TA1537, Metabolic Activation: NONE, Method: STANDARD PLATE", "value": "inactive; negative"}, {"measurement": "mutagenic call", "setting": "Test System: AMES SALMONELLA TYPHIMURIUM, Strain/Indicator: TA1537, Metabolic Activation: S-9, Method: STANDARD PLATE", "value": "inactive; negative"}]}
